The results in this text go back to US20230108906A1, “SUBSTITUTED BICYCLIC AND TRICYCLIC UREAS AND AMIDES, ANALOGUES THEREOF, AND METHODS USING SAME” (Arbutus Biopharma Corporation, priority 2019, published 2023).

For the first assay, the system named is HBV rcDNA in HepDE19 cells. The assay can be described thus: HepDE19 assay with bDNA quantitation of HBV rcDNA. The settings on record: Hepatitis B virus, HepDE19, 168 h, inhibition of rcDNA formation in HepDE19 cells (HepG2 derived), Tet-free medium, 7 day incubation, Quantigene 2.0 bDNA readout, top concentration 25 μM; read-out: DE-19bDNA EC50. It counts as cell-based, hepatitis B virus (HBV). Summed up: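 HepDE19 cells (HepG2-derived, Tet-regulated HBV) switched to Tet-free medium, then treated 7 days at 37 °C with compound, 8-point titration from 25 μM, 0.5% DMSO. rcDNA quantified by bDNA with HBV probes; EC50/EC90 via 4-parameter fit. Viability (CC50) by CellTiter-Glo ATP on 5,000 cells/well after 4 days.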
What is called EC50 is the concentration at which the effect is half-maximal. Regarding `CN(C(=O)Nc1cc(F)cc(Cl)c1)C1COCc2[nH]c(=O)c3ccccc3c21` (stereo not drawn) [Compound 29, 3-(3-Chloro-5-fluorophenyl)-1-methyl-1-(6-oxo-1,4,5,6-tetrahydro-2H-pyrano[3,4-c]isoquinolin-1-yl)urea], the EC50 worked out at 120 nM.

Regarding `Cc1cc(NC(=O)N(C)C2COCc3[nH]c(=O)c4cc(Cl)ccc4c32)ccc1F` (stereo not drawn) [Compound 58, 1-(8-Chloro-6-oxo-1,4,5,6-tetrahydro-2H-pyrano[3,4-c]isoquinolin-1-yl)-3-(4-fluoro-3-methylphenyl)-1-methylurea], the EC50 was found to be 40 nM.

For `CN(C(=O)Nc1ccc(F)c(Cl)c1)C1CCCc2[nH]c(=O)cc(C(F)(F)F)c21` (stereo not drawn) [Compound 2, 3-(3-Chloro-4-fluorophenyl)-1-methyl-1-(2-oxo-4-(trifluoromethyl)-1,2,5,6,7,8-hexahydroquinolin-5-yl)urea], the EC50 stood at 1500 nM.

As for `CC(C)CN(C(=O)Nc1ccc(F)c(Cl)c1)C1CCc2[nH]c(=O)c3ccccc3c21` (stereo not drawn) [Compound 13, 3-(3-Chloro-4-fluorophenyl)-1-isobutyl-1-(5-oxo-2,3,4,5-tetrahydro-1H-cyclopenta[c]isoquinolin-1-yl)urea], the EC50 came out at 1300 nM.

For `CCN(C(=O)Nc1ccc(F)c(Cl)c1)C1COCc2[nH]c(=O)c3ccc(F)cc3c21` (stereo not drawn) [Compound 74, 3-(3-Chloro-4-fluorophenyl)-1-ethyl-1-(9-fluoro-6-oxo-1,4,5,6-tetrahydro-2H-pyrano[3,4-c]isoquinolin-1-yl)urea], the half-maximal effective concentration (EC50) amounted to 20 nM.

As to `CN(C(=O)Nc1ccc(F)c(Cl)c1)C1COCc2[nH]c(=O)c3cc(Cl)ccc3c21` (stereo not drawn) [Compound 55, 3-(3-Chloro-4-fluorophenyl)-1-(8-chloro-6-oxo-1,4,5,6-tetrahydro-2H-pyrano[3,4-c]isoquinolin-1-yl)-1-methylurea], the EC50 came out at 50 nM.

Consider `CN(C(=O)Nc1ccc(F)c(Cl)c1)C1CCCc2[nH]c(=O)c3cc(F)c(F)cc3c21` (racemic) [Compound 15, 3-(3-Chloro-4-fluorophenyl)-1-(8,9-difluoro-6-oxo-1,2,3,4,5,6-hexahydrophenanthridin-1-yl)-1-methylurea], for which the EC50 was found to be 20 nM.

With `CCN(C(=O)Nc1ccc(F)c(Cl)c1)C1COCc2[nH]c(=O)c3cc(Cl)ccc3c21` (stereo not drawn) [Compound 56, 3-(3-Chloro-4-fluorophenyl)-1-(8-chloro-6-oxo-1,4,5,6-tetrahydro-2H-pyrano[3,4-c]isoquinolin-1-yl)-1-ethylurea], the EC50 was 50 nM.

On to `O=C(Nc1ccc(F)c(Cl)c1)N(CCCO)C1CCCCc2[nH]c(=O)c3ccccc3c21` (stereo not drawn) [Compound 22, 3-(3-Chloro-4-fluorophenyl)-1-(3-hydroxypropyl)-1-(5-oxo-6,7,8,9,10,11-hexahydro-5H-cyclohepta[c]isoquinolin-11-yl)urea], for which the EC50 was found to be 600 nM.

In the case of `CN(C(=O)Nc1ccc(F)c(Cl)c1)[C@@H]1COCc2c1c1cc(F)c(F)cc1c(=O)n2C` [Compound 243, (S)-3-(3-Chloro-4-fluorophenyl)-1-(8,9-difluoro-5-methyl-6-oxo-1,4,5,6-tetrahydro-2H-pyrano[3,4-c]isoquinolin-1-yl)-1-methylurea], the EC50 was determined as 20 nM.

For the molecule `CN(C(=O)Nc1ccc(F)c(Cl)c1)C1COCc2[nH]c(=O)c3ccsc3c21` (stereo not drawn) [Compound 96, 3-(3-chloro-4-fluorophenyl)-1-methyl-1-(4-oxo-4,6,8,9-tetrahydro-5H-pyrano[3,4-b]thieno[2,3-d]pyridin-9-yl)urea], the EC50 was determined as 80 nM.

Regarding `CC(C)CN(C(=O)Nc1ccc(F)c(Cl)c1)C1CCCc2[nH]c(=O)c3ccccc3c21` (stereo not drawn) [Compound 8, 3-(3-Chloro-4-fluorophenyl)-1-isobutyl-1-(6-oxo-1,2,3,4,5,6-hexahydrophenanthridin-1-yl)urea], the EC50 is 470 nM.

Still in this assay, the particulars now being: inhibition of rcDNA formation in HepDE19 cells (HepG2 derived), Tet-free medium, 7 day incubation, Quantigene 2.0 bDNA readout, top concentration 25 μM; read-out: DE-19bDNA EC50.
Turning to `O=C(Nc1ccc(F)c(Cl)c1)N(CCCO)C1COCc2[nH]c(=O)c3cc(F)ccc3c21` (single isomer, unassigned) [Compound 109, 3-(3-Chloro-4-fluorophenyl)-1-(8-fluoro-6-oxo-1,4,5,6-tetrahydro-2H-pyrano[3,4-c]isoquinolin-1-yl)-1-(3-hydroxypropyl)urea], the EC50 was 620 nM.

Turning to `CN(C(=O)Nc1ccc(F)c(Cl)c1)C1CSCc2[nH]c(=O)c3cc(F)ccc3c21` (single isomer, unassigned) [Compound 183, 3-(3-Chloro-4-fluorophenyl)-1-(8-fluoro-6-oxo-1,4,5,6-tetrahydro-2H-thiopyrano[3,4-c]isoquinolin-1-yl)-1-methylurea], the EC50 was determined as 1100 nM.

As to `CN(C(=O)Nc1ccc(F)c(Cl)c1)C1C[S+]([O-])Cc2[nH]c(=O)c3cc(F)c(F)cc3c21` (single isomer, unassigned) [Compound 207, 3-(3-Chloro-4-fluorophenyl)-1-(8,9-difluoro-3-oxido-6-oxo-1,4,5,6-tetrahydro-2H-thiopyrano[3,4-c]isoquinolin-1-yl)-1-methylurea], the EC50 was 1300 nM.

Take `NS(=O)(=O)CCN(C(=O)Nc1ccc(F)c(Cl)c1)C1COCc2[nH]c(=O)c3cc(F)c(F)cc3c21` (single isomer, unassigned) [Compound 137, 2-(3-(3-Chloro-4-fluorophenyl)-1-(8,9-difluoro-6-oxo-1,4,5,6-tetrahydro-2H-pyrano[3,4-c]isoquinolin-1-yl)ureido)ethane-1-sulfonamide]: the concentration giving a half-maximal response (EC50) worked out at 10 nM.

For `CN(C(=O)Nc1ccc(F)c(Cl)c1)C1C[S+]([O-])Cc2[nH]c(=O)c3cc(F)c(F)cc3c21` (single isomer, unassigned) [Compound 210, 3-(3-Chloro-4-fluorophenyl)-1-(8,9-difluoro-3-oxido-6-oxo-1,4,5,6-tetrahydro-2H-thiopyrano[3,4-c]isoquinolin-1-yl)-1-methylurea], the EC50 came out at 7100 nM.

Turning to `CN(C(=O)Nc1ccc(F)c(C#N)c1)C1CSCc2[nH]c(=O)c3cc(F)c(F)cc3c21` (single isomer, unassigned) [Compound 190, 3-(3-Cyano-4-fluorophenyl)-1-(8,9-difluoro-6-oxo-1,4,5,6-tetrahydro-2H-thiopyrano[3,4-c]isoquinolin-1-yl)-1-methylurea], the EC50 was determined as 20 nM.

Turning to `CN(C(=O)N1Cc2ccccc2C1)C1CNCc2[nH]c(=O)c3cc(F)c(F)cc3c21` (single isomer, unassigned) [Compound 222, N-(8,9-Difluoro-6-oxo-1,2,3,4,5,6-hexahydrobenzo[c][1,7]naphthyridin-1-yl)-N-methylisoindoline-2-carboxamide], the EC50 is at least 25000 nM.

Turning to `CN(C(=O)Nc1ccc(F)c(C(F)F)c1)C1CNCc2[nH]c(=O)c3cc(F)c(F)cc3c21` (single isomer, unassigned) [Compound 216, 1-(8,9-Difluoro-6-oxo-1,2,3,4,5,6-hexahydrobenzo[c][1,7]naphthyridin-1-yl)-3-(3-(difluoromethyl)-4-fluorophenyl)-1-methylurea], the EC50 is 3500 nM.

`CC(C)CN(C(=O)Nc1ccc(F)c(C#N)c1)C1COCc2[nH]c(=O)c3cc(F)c(F)cc3c21` (single isomer, unassigned) [Compound 122, 3-(3-Cyano-4-fluorophenyl)-1-(8,9-difluoro-6-oxo-1,4,5,6-tetrahydro-2H-pyrano[3,4-c]isoquinolin-1-yl)-1-isobutylurea]: the EC50 is 120 nM.

As to `CN(C(=O)Nc1ccc(F)c(C#N)c1)C1C[S+]([O-])Cc2[nH]c(=O)c3cc(F)c(F)cc3c21` (single isomer, unassigned) [Compound 214, 3-(3-Cyano-4-fluorophenyl)-1-(8,9-difluoro-3-oxido-6-oxo-1,4,5,6-tetrahydro-2H-thiopyrano[3,4-c]isoquinolin-1-yl)-1-methylurea], the EC50 stood at 15000 nM.

With `CN(C(=O)Nc1ccc(F)c(Cl)c1)C1CCCc2[nH]c(=O)c3cc(F)c(F)cc3c21` (stereo not drawn) [Compound 39, 3-(3-Chloro-4-fluorophenyl)-1-(8,9-difluoro-6-oxo-1,2,3,4,5,6-hexahydrophenanthridin-1-yl)-1-methylurea], the EC50 came to 10 nM.

Regarding `CN(C(=O)Nc1cc(F)c(F)c(F)c1)C1COCc2[nH]c(=O)c3cc(F)c(F)cc3c21` (single isomer, unassigned) [Compound 133, 1-(8,9-Difluoro-6-oxo-1,4,5,6-tetrahydro-2H-pyrano[3,4-c]isoquinolin-1-yl)-1-methyl-3-(3,4,5-trifluorophenyl)urea], the EC50 came to 20 nM.

Consider `CC(C)CN(C(=O)Nc1cc(F)c(F)c(F)c1)C1COCc2[nH]c(=O)c3cc(F)ccc3c21` (single isomer, unassigned) [Compound 113, 1-(8-Fluoro-6-oxo-2,4,5,6-tetrahydro-1H-pyrano[3,4-c]isoquinolin-1-yl)-1-isobutyl-3-(3,4,5-trifluorophenyl)urea], for which the EC50 is 20 nM.

In the case of `CN(C(=O)Nc1ccc(F)c(F)c1)C1CCCc2[nH]c(=O)c3c(c21)CCOC3` (single isomer, unassigned) [Compound 63, 3-(3,4-Difluorophenyl)-1-methyl-1-(5-oxo-1,4,5,6,7,8,9,10-octahydro-2H-pyrano[3,4-c]quinolin-10-yl)urea], the EC50 is 3100 nM.

As to `CC(C)CN(C(=O)Nc1ccc(F)c(F)c1)C1COCc2[nH]c(=O)c3cc(F)ccc3c21` (single isomer, unassigned) [Compound 100, 3-(3,4-Difluorophenyl)-1-(8-fluoro-6-oxo-2,4,5,6-tetrahydro-1H-pyrano[3,4-c]isoquinolin-1-yl)-1-isobutylurea], the EC50 amounted to 430 nM.
